Source: PubChem BioAssay (NCI)
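Five concentrations, 48 hours, 96-well plates. TGI marks complete inhibition of growth.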

How the values were obtained:
Assay in all cases: growth of human tumour cells (NCI), 48 h
SN12C renal = tested on: SN12C renal
BT-549 breast = tested on: BT-549 breast
UO-31 renal = tested on: UO-31 renal
A549 NSCLC = tested on: A549 NSCLC
NCI/ADR-RES ovarian = tested on: NCI/ADR-RES ovarian
TK-10 renal = tested on: TK-10 renal
OVCAR-3 ovarian = tested on: OVCAR-3 ovarian
U251 CNS = tested on: U251 CNS
NCI-H23 lung = tested on: NCI-H23 lung
HCT-116 colon = tested on: HCT-116 colon
NCI-H522 lung = tested on: NCI-H522 lung
UACC-257 melanoma = tested on: UACC-257 melanoma
LOX IMVI melanoma = tested on: LOX IMVI melanoma
MDA-MB-231 breast = tested on: MDA-MB-231 breast
CCRF-CEM leukemia = tested on: CCRF-CEM leukemia
SF-295 CNS = tested on: SF-295 CNS
PC-3 prostate = tested on: PC-3 prostate
SF-539 CNS = tested on: SF-539 CNS
SK-OV-3 ovarian = tested on: SK-OV-3 ovarian
A498 renal = tested on: A498 renal

SMILES | TGI (SN12C renal) [µM] | TGI (BT-549 breast) [µM] | TGI (UO-31 renal) [µM] | TGI (A549 NSCLC) [µM] | TGI (NCI/ADR-RES ovarian) [µM] | TGI (TK-10 renal) [µM] | TGI (OVCAR-3 ovarian) [µM] | TGI (U251 CNS) [µM] | TGI (NCI-H23 lung) [µM] | TGI (HCT-116 colon) [µM] | TGI (NCI-H522 lung) [µM] | TGI (UACC-257 melanoma) [µM] | TGI (LOX IMVI melanoma) [µM] | TGI (MDA-MB-231 breast) [µM] | TGI (CCRF-CEM leukemia) [µM] | TGI (SF-295 CNS) [µM] | TGI (PC-3 prostate) [µM] | TGI (SF-539 CNS) [µM] | TGI (SK-OV-3 ovarian) [µM] | TGI (A498 renal) [µM]
CC(C)(C)OC(=O)NCC(c1c[nH]c2cc(Br)ccc12)c1c[nH]c2cc(Br)ccc12 | 33.6 | 30.3 | 34.5 | 44.7 | 35.9 | 35.9 | 29.1 | 31 | 34.2 | 31.4 | 32.7 | 44.6 | 32.2 | 32.4 | > 100 | 36.2 | 31.1 | 38 | 29.5 | –
O=C1/C(=C/c2ccc([N+](=O)[O-])cc2)CCCc2ccccc21 | > 100 | > 100 | > 100 | > 100 | > 100 | > 100 | > 100 | > 100 | > 100 | > 100 | > 100 | > 100 | > 100 | > 100 | > 100 | > 100 | > 100 | > 100 | > 100 | –
COc1ccc(C/C=C(\C)CCO)cc1 | > 100 | > 100 | > 100 | > 100 | > 100 | > 100 | > 100 | > 100 | > 100 | > 100 | > 100 | > 100 | > 100 | > 100 | > 100 | > 100 | > 100 | > 100 | > 100 | –
COc1ccc2nc(N/N=C/c3ccc(C)s3)cc(C)c2c1 | 38.3 | 29.6 | 36.5 | > 100 | 66.4 | > 100 | 38.1 | 72.9 | 28.6 | 35.9 | > 100 | 39.4 | 33.7 | 43.9 | > 100 | 37.8 | 35.9 | 34.8 | 45 | –
O=C1C=CC(=O)c2c(O)c(NCCN3CCOCC3)c(Cl)c(O)c21 | 3.23 | 3.98 | 3.96 | 4.96 | 4.88 | > 10 | 7.26 | 6.97 | – | 3.17 | – | 4.56 | 2.85 | 6.43 | 4.46 | 3.41 | 7.15 | 3.33 | > 10 | > 10
COP(=O)(/C=C/C(NC(=O)C(Cl)(Cl)Cl)c1ccccc1)OC (centres undefined) | > 100 | > 100 | > 100 | > 100 | > 100 | > 100 | > 100 | > 100 | > 100 | > 100 | > 100 | > 100 | > 100 | > 100 | – | > 100 | > 100 | – | > 100 | > 100
CC(=O)OC(OC(C)=O)c1c2ccccc2cc2ccccc12 | 63.4 | 32.9 | 53 | 65.9 | 46.7 | 61.2 | 67.3 | > 100 | > 100 | 28.3 | – | 41 | 59.9 | 40.1 | 18 | 45.3 | 90.5 | 36.1 | 52.4 | 40.7
CSc1c(C(N)=S)c(N)nn1-c1ccccc1 | > 100 | > 100 | > 100 | > 100 | > 100 | > 100 | > 100 | > 100 | > 100 | > 100 | > 100 | > 100 | > 100 | > 100 | – | – | > 100 | > 100 | > 100 | > 100
Brc1ccc2nc(-c3cccs3)nc(N3CCN(c4ccccc4)CC3)c2c1 | > 100 | > 100 | > 100 | > 100 | > 100 | > 100 | > 100 | > 100 | > 100 | > 100 | > 100 | > 100 | > 100 | > 100 | – | > 100 | > 100 | > 100 | > 100 | > 100
Cc1cn(CCCCOC(=O)NC(CCCN=C(N)N)C(=O)O)c(=O)[nH]c1=O (centres undefined) | > 100 | > 100 | > 100 | > 100 | > 100 | > 100 | > 100 | > 100 | > 100 | > 100 | – | > 100 | > 100 | > 100 | > 100 | > 100 | > 100 | > 100 | > 100 | > 100
O=S(=O)(O)c1ccc(N=Nc2ccc(N=Nc3c(O)ccc4ccc(S(=O)(=O)O)cc34)cc2)cc1 | > 100 | > 100 | > 100 | > 100 | > 100 | > 100 | > 100 | > 100 | > 100 | > 100 | > 100 | > 100 | – | > 100 | > 100 | > 100 | > 100 | > 100 | > 100 | –
COc1ccc(/C(=N/OCCCC(=O)O)c2cccs2)cc1 | > 100 | > 100 | > 100 | > 100 | > 100 | > 100 | > 100 | > 100 | > 100 | > 100 | – | > 100 | > 100 | > 100 | > 100 | > 100 | > 100 | > 100 | > 100 | > 100
C/C1=C\[C@@H](C)C[C@@H](C)OC(=O)[C@@H](C)NC(=O)[C@H](Cc2ccc(O)c(Br)c2)N(C)C(=O)CNC(=O)[C@H](C)C1 | > 100 | 2.16 | 0.127 | > 100 | > 57 | 0.26 | 0.0243 | 5.34 | – | > 55.2 | – | 27.2 | < 0.01 | 5.34 | < 0.01 | 5.55 | 5.04 | 0.677 | 5.26 | < 0.021
C=CC(=C)CCC(Br)C(C)(C)Br (centres undefined) | > 100 | > 100 | > 100 | > 100 | > 100 | > 100 | > 100 | > 100 | > 100 | > 100 | 30.6 | > 100 | – | > 100 | 50.8 | > 100 | > 100 | > 100 | > 100 | –
Cc1cc(OP2(=O)NCc3ccncc3O2)ccc1Cl (centres undefined) | > 100 | > 100 | > 100 | > 100 | > 100 | – | > 100 | > 100 | > 100 | > 100 | – | > 100 | > 100 | > 100 | > 100 | > 100 | > 100 | > 100 | – | > 100
CCCCCCCCCCCCCC(=O)OCC(CCS(=O)(=O)O[C@H]1CC[C@@]2(C)C(=CC[C@@H]3C2CC[C@]2(C)C(=O)CCC32)C1)OC(=O)CCCCCCCCCCCCC (some centres undefined) | > 100 | > 100 | > 100 | > 100 | > 100 | > 100 | > 100 | > 100 | > 100 | > 100 | – | > 100 | > 100 | > 100 | > 100 | > 100 | > 100 | > 100 | > 100 | > 100
CCCC(=O)Nc1cc(/C=C/C(=O)N2CC(CCl)c3ccc([N+](=O)[O-])cc32)n(C)c1 (centres undefined) | > 100 | > 100 | > 100 | > 100 | > 100 | > 100 | > 100 | > 100 | > 100 | > 100 | > 100 | > 100 | > 100 | > 100 | 29.4 | > 100 | > 100 | > 100 | > 100 | –
COc1ccc(CC2Cc3ccccc3CC(=O)N2)cc1OC (centres undefined) | > 100 | > 100 | > 100 | > 100 | > 100 | > 100 | > 100 | > 100 | > 100 | > 100 | – | > 100 | > 100 | > 100 | > 100 | > 100 | > 100 | > 100 | > 100 | > 100
Nc1nncc2n[nH]nc12 | > 100 | > 100 | > 100 | > 100 | > 100 | > 100 | > 100 | > 100 | > 100 | > 100 | – | > 100 | – | > 100 | > 100 | > 100 | > 100 | > 100 | – | > 100
COc1cc(/C=C2\N=C(c3ccccc3)N(c3nc4ccccc4s3)C2=O)cc(OC)c1OC | 82.4 | 59.4 | > 100 | > 100 | 62 | > 100 | 60.4 | > 100 | > 100 | > 100 | 35.8 | > 100 | > 100 | > 100 | – | > 100 | > 100 | > 100 | – | > 100
COC(=O)[C@H](Cc1ccccc1)NC(=O)OCC1OC(n2cc(C)c(=O)[nH]c2=O)CC1N=[N+]=[N-] (some centres undefined) | > 100 | > 100 | > 100 | > 100 | > 100 | > 100 | > 100 | > 100 | > 100 | > 100 | > 100 | > 100 | > 100 | > 100 | > 100 | > 100 | > 100 | – | > 100 | –
COC(=O)Cc1cccc2c(=O)c(S(=O)(=O)NC(=O)Nc3ccc(Cl)cc3)c(-c3ccccc3)oc12 | > 100 | > 100 | > 100 | > 100 | > 100 | > 100 | > 100 | > 100 | > 100 | > 100 | 38.6 | > 100 | > 100 | > 100 | > 100 | > 100 | > 100 | > 100 | > 100 | –
CC(=O)OCCCCn1nncc1Cn1ccc(=O)n(Cc2cnnn2CCCCOC(C)=O)c1=O | > 100 | > 100 | > 100 | > 100 | > 100 | > 100 | > 100 | > 100 | > 100 | > 100 | – | > 100 | > 100 | > 100 | 2.61 | > 100 | > 100 | > 100 | > 100 | > 100
C=C(C)[C@@]12C[C@H](OC(=O)[C@H](O)[C@@H](NC(=O)c3ccccc3)c3ccccc3)C(C)=C1[C@@H](OC(C)=O)C(=O)[C@@]1(C)C([C@@H]2OC(=O)c2cc(F)cc(F)c2)C2(OC(C)=O)CO[C@@H]2C[C@@H]1O (some centres undefined) | > 4.51 | 2.99 | > 10 | > 6.61 | 6.63 | 9.66 | 1.92 | > 5.16 | 3.14 | 1.22 | – | 2.79 | 2.21 | 2.22 | 0.355 | > 10 | > 10 | 0.259 | > 10 | 3.03
